From patent US4543254A, “Antiphlogistic/antipyretic/analgesic agents containing theobromine or theophylline derivatives as active ingredient” (Eisai Co., Ltd., priority 1982, dated 1985)
Like-named read-outs stand apart in the source and are kept apart here.

Key:
[1] = Antipyretic activity: dry yeast-induced fever (rats); type: in vivo, SD male rats; conditions: Rattus norvegicus, po, read-out: ED, effective dose for reducing the fever by more than 1° C. when the compound action is at the peak
Procedure: A 2% suspension of dry yeast was injected sub-Cutaneously to SD male rats of 250 to 300 g body weight in an amount of 2 ml/animal to cause a fever, and 4 hours later, the compounds of this invention and control drugs were administered orally. The rectal temerature of each rat was measured periodically, and the dosage of each compound required to reduce the fever by more than 1° C. at the peak of its activity was determined.

[2] = Antiphlogistic activity: carrageenin paw edema (rats); type: in vivo, Wistar rats; conditions: Rattus norvegicus, po, 3 hours
Procedure: (3) Antiphlogistic activity^5
Each test compound of this invention was administered orally to Wistar rats of about 300 g body weight, and 30 minutes later 0.05 ml of a 1% carrageenin solution was injected into a paw of each rat. After three hours, the paw volume was measured to determine the degree of edema formation and the 30% effective dose (ED30) was calculated from the inhibition rate relative to a control group.
(5) R. Vinegar et al: J. Pharmacol. Exp. Ther., 166, 96 (1969)

[3] = Analgesic activity: bradykinin-induced pain response (rats); type: in vivo, SD male rats; conditions: Rattus norvegicus, po, read-out: Analgesic activity ED50
Procedure: (B) Bradykinin-induced pain response^3,4
A polyethylene tube was inserted into a common right carotid artery of SD male rats (250 to 350 g) and 0.5 microngram per 0.1 ml of bradykinin was injected into the artery through said tube. Response induced by bradykinin such as flexin of the right forelimb, dextro-rotation of the head and rearing were considered as being indices of pain response, and the analgesic action of each test compound was determined by observing its inhibition of responses such symptoms.
(3) T. Abe, T. Kaneko and H. Takagi: Japan Pharm. Soc. Bul., 67, 9-14 (1971)
(4) G. F. Blane: J. Pharma. Pharmacol., 19, 367 (1967)

[4] = Analgesic activity: acetic acid writhing method (mice); type: in vivo, ddy-strain male mice; conditions: Mus musculus, po
Procedure: (a) Acetic acid writhing method^1
A 0.7% acetic acid solution was injected intraperitoneally to ddy-strain male mice (20 to 25 g) in an amount of 0.1 ml per 10 g mouse body weight to cause a writhing syndrome typified by stretching of the hind legs. The inhibitory action of each test compound against said symptom was observed as a measure of the analgesic activity of the compound.
(1) Hendershot, L. C. and Forsaith, J.: J. Pharmacol. Exp. Ther., 125, 237 (1959).
(2) Litchfield, Jr., J. T. and Wilcoxon, F.: J. Pharmacol. Exp. Ther., 96, 99 (1949).

[5] = in vivo; conditions: po, p.o., read-out: Safety margin (LD50/ED50)
Procedure: Ten mice were used for each dose and morality was determined for 3 days after administration of each test compound of the invention. In the case of the rats, 5 rats were used for each dose and morality was determined 7 days after administrations.

[6] = tested on: SD male rats; conditions: p.o., control drugs, given in Japan National Formulary, 6th Ed. (1982); cited from earlier work
[7] = tested on: ddy male mice; conditions: p.o., control drugs, given in Japan National Formulary, 6th Ed. (1982); cited from earlier work
[8] = rats, p.o., bradykinin-induced pain

| SMILES | minimal effective dose [1] | ED30 [2] | ED50 [3, 8] | ED50 [4] | selectivity ratio ([5]; mouse, mice) | selectivity ratio ([5]; rat, rats) | ED50 [3] | Acute toxicity LD50 [6] | Acute toxicity LD50 [7] |
| --- | --- | --- | --- | --- | --- | --- | --- | --- | --- |
| Cn1cnc2c1c(=O)n(CCCN1CCN(c3ccc(Cl)c(Cl)c3)CC1)c(=O)n2C [Compound A', 1-(3-(4-(3,4-dichlorophenyl)piperazinyl-(1))-n-propyl)theobromine] | 40 mg/kg | 25 mg/kg | 40 mg/kg | 7.2 mg/kg |  |  |  |  |  |
| Cn1c(=O)c2c(ncn2CCCCN2CCN(c3ccc(F)cc3)CC2)n(C)c1=O [Compound A] | 10 mg/kg | 10 mg/kg | 47 mg/kg | 10 mg/kg | 34 | 7.5 to 10.6 |  |  |  |
| Cc1cccc(N2CCN(CCn3c(=O)c4c(ncn4C)n(C)c3=O)CC2)c1C [Compound B', 1-(2-(4-(2,3-dimethylphenyl)piperazinyl-(1))-ethyl)theobromine.2HCl] |  |  | 20 mg/kg | 2.6 mg/kg | 230 | ≥ 100 |  |  |  |
| Cn1c(=O)c2c(ncn2CCCCCN2CCN(c3ccc(Cl)cc3)CC2)n(C)c1=O [Compound B] | 40 mg/kg | 50 mg/kg | 40 mg/kg | 13.8 mg/kg | 51 | 8.8 to 12.5 |  |  |  |
| Cn1cnc2c1c(=O)n(CCCN1CCN(c3ccccc3Cl)CC1)c(=O)n2C [Compound C', 1-(3-(4-o-chlorophenylpiperazinyl-(1))-n-propyl)theobromine.2HCl] |  | 10 mg/kg |  | 3.3 mg/kg | 61 |  |  |  |  |
| Cc1ccc(N2CCN(CCCn3cnc4c3c(=O)n(C)c(=O)n4C)CC2)cc1C [Compound C] | 10 mg/kg |  | 57 mg/kg | 13.3 mg/kg | > 60 | 13.6 |  |  |  |
| COc1ccccc1N1CCN(CCCCn2c(=O)c3c(ncn3C)n(C)c2=O)CC1 [Compound D', 1-(4-(4-o-methoxyphenylpiperazinyl-(1))-n-butyl)theobromine.2HCl] |  |  |  | 3.1 mg/kg | 130 to 258 |  |  |  |  |
| Cn1c(=O)c2c(ncn2CCCCN2CCN(c3ccc(Cl)cc3)CC2)n(C)c1=O [Compound D] | 40 mg/kg | 25 mg/kg |  | 26 mg/kg | 22 | 7.6 | 68 mg/kg |  |  |
| Cn1cnc2c1c(=O)n(CCCCN1CCN(c3ccc(F)cc3)CC1)c(=O)n2C [Compound E', 1-(4-(4-p-fluorophenylpiperazinyl-(1))-n-butyl)theobromie.2HCl] |  | 25 mg/kg |  | 7.8 mg/kg | 26 |  |  |  |  |
| Cn1cnc2c1c(=O)n(CCCCN1CCN(c3ccc(Cl)c(Cl)c3)CC1)c(=O)n2C [Compound F', 1-(4-(4-(3,4-dichlorophenyl)piperazinyl-(1))-n-butyl)theobromine.2HCl] |  |  |  | 7.8 mg/kg | 51 to 103 |  |  |  |  |
| Cn1c(=O)c2c(ncn2CCCCCN2CCN(c3cccc(C(F)(F)F)c3)CC2)n(C)c1=O [Compound F] | 10 mg/kg | 25 mg/kg | 63 mg/kg | 27.1 mg/kg | ≥ 30 | 10.5 |  |  |  |
| Cc1cccc(N2CCN(CCCCCn3c(=O)c4c(ncn4C)n(C)c3=O)CC2)c1 [Compound G', 1-(5-(4-m-methylphenylpiperazinyl-(1))-n-pentyl)theobromine.2HCl] |  | 25 mg/kg |  | 13.5 mg/kg | 22 |  |  |  |  |
| COc1cc(C)nc(-n2nc(C)cc2OC)n1 [Control drug I, 4-methoxy-2-(5-methoxy-3-methylpyrazol-1-yl)-6-methylpyrimidine, reference compound] | 40 mg/kg |  | ≥ 160 mg/kg | 240 mg/kg | 4.3 | ≤ 3 |  | 526 mg/kg |  |
| O=C(Cn1c(=O)sc2ccc(Cl)cc21)N1CCN(CCO)CC1 [Control drug II, 4-((5-chloro-2-oxo-3(2H)-benzothiazolyl)acetyl)-1-piperazineethanol, reference compound] | 40 mg/kg |  | ≥ 160 mg/kg | 66 mg/kg | 8.5 | ≤ 23 |  | 3,600 mg/kg | 564 mg/kg |
| OC(CN1CCCCC1)c1cc(-c2ccccc2)on1 (stereo not shown) [Control drug III, 3-(1-hydroxy-2-piperadinoethyl)-5-phenylisoxazole, reference compound] | 160 mg/kg |  | 160 mg/kg | 120 mg/kg | 5.1 | 12 |  | 1,978 mg/kg | 612 mg/kg |
